Test results taken from patent publication US12391686B2, “Compounds and uses thereof” (Foghorn Therapeutics Inc., priority 2019, dated 2025).

Columns and labels:
[1] = test system: synovial sarcoma cell lines (SYO1, HS-SY-II, and ASKA); experiment: Crystal violet growth assay in synovial sarcoma cell lines, Example 4; type: cell-based; conditions: for inhibition of the growth of the cells: SYO1, HS-SY-II, ASKA, treated daily, day 14, FIG. 8
Method: (§1) Procedure: Cells were seeded into 6-well or 12-well plates and were treated daily with a BRD9 degrader (Compound 1), a bromo-domain BRD9 binder (Compound 2), E3 ligase binder (lenalidomide), DMSO, or staurosporin (positive control for cell killing), at indicated concentrations. The number of cells was optimized for each cell line. Growth media was refreshed every 5 days. By day 14, medium was removed, cells were washed with PBS, and stained using 500 μL of 0.005% (w/v) crystal violet solution in 25% (v/v) methanol for at least 1 hour at room temperature. Subsequently plates were scanned on an Odyssey CLx Imaging system.

SYO1 cells [2] = experiment: Cell cycle analysis (Click-iT Plus EdU Flow Cytometry Assay); type: cell-based; conditions: 200 nM or 1 μM, 8 or 13 days, as compared to DMSO and lenalidomide
Method: (§2) Procedure: SYO1 cells were treated for 8 or 13 days with DMSO, a BRD9 degrader (Compound 1) at 200 nM or 1 μM, or an E3 ligase binder (lenalidomide) at 200 nM. Compounds were refreshed every 5 days. Cell cycle analysis was performed using the Click-iT™ Plus EdU Flow Cytometry Assay (Invitrogen). The apoptosis assay was performed using the Annexin V-FITC Apoptosis Detection Kit (Sigma A9210). Assays were performed according to the manufacturer's protocol.

[3] = test system: non-synovial control cancer cell lines (293T, A549, G401); experiment: Growth of non-synovial control cancer cell lines, Example 3; type: cell-based; conditions: FIGS. 5, 6, 7
Method: (§3) Procedures: Cells were treated with DMSO or the BRD9 degrader, Compound 1, at indicated concentrations, and proliferation was monitored from day 7 to day 14 by measuring confluency over time using an IncuCyte live cell analysis system (FIG. 5). Growth medium and compounds were refreshed every 3-4 days.
(§4) Cells were seeded into 12-well plates and treated with DMSO, 1 μM BRD9 inhibitor, Compound 2 (also known as BI-7273, see Martin et al, J Med Chem. 59(10):4462-4475 (2016); see structure of Compound 2 below), or 1 μM BRD9 degrader, Compound 1.
(§5) The number of cells was optimized for each cell line. Growth medium and compounds were refreshed every 3-5 days. SYO1, Yamato, A549, 293T and HS-SY-II cells were fixed and stained at day 11. ASKA cells were fixed and stained at day 23. Staining was done by incubation with crystal violet solution (0.5 g Crystal Violet, 27 ml 37% Formaldehyde, 100 mL 10×PBS, 10 mL Methanol, 863 dH2O to 1 L) for 30 min followed by 3× washes with water and drying the plates for at least 24 h at room temperature. Subsequently plates were scanned on an Odyssey CLx Imaging system (FIG. 6).
(§6) Cells were seeded into 96-well ultra low cluster plate (Costar, #7007) in 200 μL complete media and treated at day 2 with DMSO, Staurosporin, or BRD9 degarder, Compound 1, at indicated doses (FIG. 7). Media and compounds were changed every 5 d and cell colonies were imaged at day 14.

[4] = test system: synovial sarcoma cell lines (SYO1, Yamato, HS-SY-II, and ASKA); experiment: Growth of synovial sarcoma cell lines (IncuCyte confluency, crystal violet, colony imaging), Example 3; type: cell-based; conditions: 1 μM or indicated doses, FIGS. 5, 6, 7
Method: as §3, §4, §5, §6

[5] = test system: non-synovial control cancer cell lines (RD, HCT116, and Calu6); experiment: Crystal violet growth assay in non-synovial control cancer cell lines, Example 4; type: cell-based; conditions: treated daily, day 14, FIG. 9
Method: as §1

SYO1 cells [6] = experiment: Apoptosis assay (Annexin V-FITC Apoptosis Detection Kit); type: cell-based; conditions: 200 nM or 1 μM, 8 days, as compared to DMSO controls
Method: as §2

[7] = molecular target: T1, BRD9 bromodomain (Flag-BRD9 P133-K239; Swiss Prot Q9H8M2) (Homo sapiens, UniProt Q9H8M2); experiment: BRD9 Bromodomain TR-FRET Competition Binding Assay; conditions: competition with biotinylated BRD9 ligand; 90 minutes at room temperature
T1 construct: His-Flag-BRD9 (P133-K239); Swiss Prot Q9H8M2; His6 with TEV site (mgsshhhhhhenlyfq/) (N, cleaved yes); made in house
T1 sequence (Q9H8M2 133-239): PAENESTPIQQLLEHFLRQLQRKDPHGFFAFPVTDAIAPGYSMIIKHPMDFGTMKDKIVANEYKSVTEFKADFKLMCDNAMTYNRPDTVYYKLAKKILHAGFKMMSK
Method: Procedure: His-Flag-BRD9 (P133-K239; Swiss Prot Q9H8M2; SEQ ID NO:1 mgsshhhhhhenlyfq/gdykddddkgslevlfqg/[…] […]) was cloned, expressed, purified, and then treated with TEV protease. Cleaved His tag was removed by purification. The binding of a biotinylated small molecule ligand of BRD9 was assessed via the LANCE® TR-FRET platform (PerkinElmer), and the compounds were assayed for inhibitory activity against this interaction.
Results: A mixture of biotinylated-ligand and SureLight™ Allophycocyanin-Streptavidin (APC-SA, PerkinElmer AD0201) in 50 mM HEPES (pH 7.4), 50 mM NaCl, 1 mM TCEP (pH 7), 0.01% (v/v) Tween-20, 0.01% (w/v) bovine serum albumin was added to a white 384-well PerkinElmer Proxiplate Plus plate. DMSO or 3-fold serially diluted compounds were then added to the Proxiplate followed by addition of Flag-BRD9. After a 10-minute incubation at room temperature, Eu-W1024 anti-FLAG (PerkinElmer, AD0273) was added. The final reaction mixture that contained 3.75 nM biotinylated ligand, 3 nM Flag-BRD9, 7.5 nM SureLight™ Allophycocyanin-Streptavidin, and 0.2 nM Eu-W1024 anti-FLAG was incubated at room temperature for 90 minutes.
The plates were then read on a PerkinElmer Envision plate reader to determine the ratio of emission at 665 nm over 615 nm. […]

[8] = molecular target: T2, Nanoluciferase-BRD9 fusion protein (3×FLAG-NLuc-BRD9) in SYO-1 cells (Homo sapiens, UniProt Q9H8M2); experiment: SYO1 BRD9 NanoLuc Degradation Assay; type: cell-based; conditions: 6 hours; SYO-1 cells expressing 3×FLAG-NLuc-BRD9; top dose 1 μM; read-out: SYO1 BRD9-NanoLuc degradation IC50
T2 construct: expressed in transfected cells; host or cells: SYO-1
T2 sequence (Q9H8M2 1-597): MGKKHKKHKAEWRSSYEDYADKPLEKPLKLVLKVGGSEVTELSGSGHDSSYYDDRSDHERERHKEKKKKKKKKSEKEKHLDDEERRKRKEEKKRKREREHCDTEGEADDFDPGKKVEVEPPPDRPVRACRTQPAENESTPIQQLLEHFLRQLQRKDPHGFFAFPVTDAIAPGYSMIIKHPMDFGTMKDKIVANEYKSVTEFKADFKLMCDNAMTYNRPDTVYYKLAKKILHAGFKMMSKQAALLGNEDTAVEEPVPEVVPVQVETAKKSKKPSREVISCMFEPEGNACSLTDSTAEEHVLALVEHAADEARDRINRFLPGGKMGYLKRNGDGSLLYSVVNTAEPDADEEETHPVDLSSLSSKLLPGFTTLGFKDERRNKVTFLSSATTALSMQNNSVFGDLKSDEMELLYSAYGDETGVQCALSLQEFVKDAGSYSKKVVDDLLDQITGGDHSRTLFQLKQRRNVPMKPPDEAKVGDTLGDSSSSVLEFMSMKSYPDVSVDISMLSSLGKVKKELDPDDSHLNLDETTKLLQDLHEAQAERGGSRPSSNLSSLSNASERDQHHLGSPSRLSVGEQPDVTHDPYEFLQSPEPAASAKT
Procedure, shortened: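 NanoLuc signal, read by Nano-Glo luminescence after 6 h compound exposure, gives % inhibition against DMSO-treated cells (high control) and cells given 1 μM of a standard BRD9 degrader (low control). Test compounds ran as 10-point 3-fold series, top 1 μM final, in duplicate on SYO-1 cells stably expressing 3×FLAG-NLuc-BRD9.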

SMILES	IC50 [7] [nM]	DC50 [8] [nM]	also measured
COc1cc(-c2cn(C)c(=O)c3cnccc23)cc(OC)c1CN(C)CC(=O)NCCOCCOCCNc1cccc2c1C(=O)N(C1CCC(=O)NC1=O)C2=O (centres unmarked) [Compound 1]	–	–	inhibition of the growth of the cells [1]: inhibition of the growth of the cells; growth inhibition compared with the other treatments ([1]; all synovial cell lines, versus Compound 2 and lenalidomide): most significant growth inhibition; numbers of cells in the S-phase of the cell cycle (SYO1 cells [2]): reduced numbers of cells in the S-phase; inhibition of the growth of the cells [3]: does not result in inhibition of the growth; inhibition of the growth of the cells [4]: inhibition of the growth of the cells; inhibition of the growth of the cells [5]: did not result in inhibition of the growth; numbers of early- and late-apoptotic cells (SYO1 cells [6]): increased numbers of early- and late-apoptotic cells
COc1cc(-c2cn(C)c(=O)c3cnccc23)cc(OC)c1CN(C)C [Compound 2]	–	–	inhibition of the growth of the cells [1]: inhibition of the growth of the cells; inhibition of the growth of the cells [3]: does not result in inhibition of the growth; inhibition of the growth of the cells [4]: inhibition of the growth of the cells; inhibition of the growth of the cells [5]: did not result in inhibition of the growth
COc1cc(-c2cn(C)c(=O)c3cnc(N(C)C)cc23)cc(OC)c1CN1CC(N(C)Cc2cccc3c2C(=O)N(C2CCC(=O)NC2=O)C3=O)C1 (centres unmarked) [Compound D3, 4-([[1-([4-[6-(dimethylamino)-2-methyl-1-oxo-2,7-naphthyridin-4-yl]-2,6-dimethoxyphenyl]methyl)azetidin-3-yl](methyl)amino]methyl)-2-(2,6-dioxopiperidin-3-yl)isoindole-1,3-dione formic acid]	< 10	≥ 10	–
COc1cc(-c2cn(C)c(=O)c3cnc(N(C)C)cc23)cc(OC)c1CN1CCC2(CC1)CN(C(=O)CCCOc1cccc3c1C(=O)N(C1CCC(=O)NC1=O)C3=O)CCO2 (centres unmarked) [Compound D18, 4-(4-(9-(4-(6-(dimethylamino)-2-methyl-1-oxo-1,2-dihydro-2,7-naphthyridin-4-yl)-2,6-dimethoxybenzyl)-1-oxa-4,9-diazaspiro[5.5]undecan-4-yl)-4-oxobutoxy)-2-(2,6-dioxopiperidin-3-yl)isoindoline-1,3-dione formic acid]	< 10	< 10	–
CNc1cc2c(=O)n(C)cc(-c3cc(OC)c(CN4CCC5(CC4)CN(C(=O)CCCOc4cccc6c4C(=O)N(C4CCC(=O)NC4=O)C6=O)CCO5)c(OC)c3)c2cn1 (centres unmarked) [Compound D16, 4-(4-(9-(2,6-dimethoxy-4-(2-methyl-7-(methylamino)-1-oxo-1,2-dihydro-2,6-naphthyridin-4-yl)benzyl)-1-oxa-4,9-diazaspiro[5.5]undecan-4-yl)-4-oxobutoxy)-2-(2,6-dioxopiperidin-3-yl)isoindoline-1,3-dione formic acid]	< 10	< 10	–

Now from value to molecule, other results behind:

IC50 [7] [nM]	DC50 [8] [nM]	SMILES	also measured
≥ 10	≥ 10	COc1cc(-c2cn(C)c(=O)c3cc(NCC(=O)NCCCCCOc4cccc5c4C(=O)N(C4CCC(=O)NC4=O)C5=O)ncc23)cc(OC)c1CN(C)C (centres unmarked) [Compound D26, 2-[(8-[4-[(dimethylamino)methyl]-3,5-dimethoxyphenyl]-6-methyl-5-oxo-2,6-naphthyridin-3-yl)amino]-N-(5-[[2-(2,6-dioxopiperidin-3-yl)-1,3-dioxoisoindol-4-yl]oxy]pentyl) acetamide]	–
< 10	< 10	CNc1cc2c(=O)n(C)cc(-c3cc(OC)c(CN4CCC5(CC4)CN(C(=O)CCCCOc4cccc6c4C(=O)N(C4CCC(=O)NC4=O)C6=O)CCO5)c(OC)c3)c2cn1 (centres unmarked) [Compound D15, 4-([5-[9-([2,6-dimethoxy-4-[2-methyl-7-(methylamino)-1-oxo-2,6-naphthyridin-4-yl]phenyl]methyl)-1-oxa-4,9-diazaspiro[5.5]undecan-4-yl]-5-oxopentyl]oxy)-2-(2,6-dioxopiperidin-3-yl)isoindole-1,3-dione formic acid]	–
≥ 10	≥ 100	COc1cc(-c2cn(C)c(=O)c3cnc(NCCCCCCCCNC(=O)COc4cccc5c4C(=O)N(C4CCC(=O)NC4=O)C5=O)cc23)cc(OC)c1CN(C)C (centres unmarked) [Compound D5, N-[8-[(5-[4-[(dimethylamino)methyl]-3,5-dimethoxyphenyl]-7-methyl-8-oxo-2,7-naphthyridin-3-yl)amino]octyl]-2-[[2-(2,6-dioxopiperidin-3-yl)-1,3-dioxoisoindol-4-yl]oxy]acetamide formic acid]	–
